# ± gives the expanded uncertainty stated by the source.
# Experiment: xn = mol fraction of the nth substance listed
# Details: 101 kPa, Liquid; for viscosity: Concentric cylinders viscometry; for speed of sound: Pulse-echo method; for mass density: Vibrating tube method
compound,measurement,setting,value
CCCCCCCO [heptan-1-ol] + C1COCCO1,viscosity,"298.15 K, x1 = 0.0505",1.217 ± 0.042 mPa·s
same,viscosity,"298.15 K, x1 = 0.1",1.247 ± 0.043 mPa·s
same,viscosity,"298.15 K, x1 = 0.1501",1.296 ± 0.045 mPa·s
same,viscosity,"298.15 K, x1 = 0.2",1.344 ± 0.047 mPa·s
same,viscosity,"298.15 K, x1 = 0.25",1.415 ± 0.049 mPa·s
same,viscosity,"298.15 K, x1 = 0.2997",1.5 ± 0.052 mPa·s
same,viscosity,"298.15 K, x1 = 0.3502",1.605 ± 0.056 mPa·s
same,viscosity,"298.15 K, x1 = 0.4001",1.713 ± 0.059 mPa·s
same,viscosity,"298.15 K, x1 = 0.4498",1.834 ± 0.064 mPa·s
same,viscosity,"298.15 K, x1 = 0.4998",2 ± 0.069 mPa·s
same,viscosity,"298.15 K, x1 = 0.55",2.169 ± 0.075 mPa·s
same,viscosity,"298.15 K, x1 = 0.6004",2.365 ± 0.082 mPa·s
same,viscosity,"298.15 K, x1 = 0.6501",2.593 ± 0.09 mPa·s
same,viscosity,"298.15 K, x1 = 0.7002",2.861 ± 0.099 mPa·s
same,viscosity,"298.15 K, x1 = 0.7493",3.154 ± 0.11 mPa·s
same,viscosity,"298.15 K, x1 = 0.7999",3.524 ± 0.12 mPa·s
same,viscosity,"298.15 K, x1 = 0.85",3.943 ± 0.14 mPa·s
same,viscosity,"298.15 K, x1 = 0.8998",4.464 ± 0.15 mPa·s
same,viscosity,"298.15 K, x1 = 0.9498",5.075 ± 0.17 mPa·s
same,viscosity,"298.15 K, x1 = 1",5.869 ± 0.2 mPa·s
same,speed of sound,"298.15 K, x1 = 0.0505",1339.3 ± 1.2 m/s
same,speed of sound,"298.15 K, x1 = 0.1",1333.2 ± 1.2 m/s
same,speed of sound,"298.15 K, x1 = 0.1501",1328.6 ± 1.2 m/s
same,speed of sound,"298.15 K, x1 = 0.2",1324.7 ± 1.2 m/s
same,speed of sound,"298.15 K, x1 = 0.25",1321.5 ± 1.2 m/s
same,speed of sound,"298.15 K, x1 = 0.2997",1319 ± 1.2 m/s
same,speed of sound,"298.15 K, x1 = 0.3502",1317.4 ± 1.2 m/s
same,speed of sound,"298.15 K, x1 = 0.4001",1316 ± 1.2 m/s
same,speed of sound,"298.15 K, x1 = 0.4498",1315.2 ± 1.2 m/s
same,speed of sound,"298.15 K, x1 = 0.4998",1314.9 ± 1.2 m/s
same,speed of sound,"298.15 K, x1 = 0.55",1314.8 ± 1.2 m/s
same,speed of sound,"298.15 K, x1 = 0.6004",1315.2 ± 1.2 m/s
same,speed of sound,"298.15 K, x1 = 0.6501",1316 ± 1.2 m/s
same,speed of sound,"298.15 K, x1 = 0.7002",1316.9 ± 1.2 m/s
same,speed of sound,"298.15 K, x1 = 0.7493",1318.2 ± 1.2 m/s
same,speed of sound,"298.15 K, x1 = 0.7999",1318.9 ± 1.2 m/s
same,speed of sound,"298.15 K, x1 = 0.85",1321.5 ± 1.2 m/s
same,speed of sound,"298.15 K, x1 = 0.8998",1323.2 ± 1.2 m/s
same,speed of sound,"298.15 K, x1 = 0.9498",1325.4 ± 1.2 m/s
same,speed of sound,"298.15 K, x1 = 1",1328.3 ± 1.2 m/s
same,mass density,"298.15 K, x1 = 0.0505",1008.57 ± 0.28 kg/m3
same,mass density,"298.15 K, x1 = 0.1",991.286 ± 0.27 kg/m3
same,mass density,"298.15 K, x1 = 0.1501",975.785 ± 0.26 kg/m3
same,mass density,"298.15 K, x1 = 0.2",961.05 ± 0.26 kg/m3
same,mass density,"298.15 K, x1 = 0.25",947.06 ± 0.25 kg/m3
same,mass density,"298.15 K, x1 = 0.2997",934.312 ± 0.25 kg/m3
same,mass density,"298.15 K, x1 = 0.3502",922.561 ± 0.25 kg/m3
same,mass density,"298.15 K, x1 = 0.4001",911.608 ± 0.25 kg/m3
same,mass density,"298.15 K, x1 = 0.4498",901.275 ± 0.24 kg/m3
same,mass density,"298.15 K, x1 = 0.4998",891.612 ± 0.24 kg/m3
same,mass density,"298.15 K, x1 = 0.55",882.643 ± 0.24 kg/m3
same,mass density,"298.15 K, x1 = 0.6004",874.251 ± 0.24 kg/m3
same,mass density,"298.15 K, x1 = 0.6501",866.177 ± 0.24 kg/m3
same,mass density,"298.15 K, x1 = 0.7002",858.585 ± 0.24 kg/m3
same,mass density,"298.15 K, x1 = 0.7493",851.217 ± 0.24 kg/m3
same,mass density,"298.15 K, x1 = 0.7999",844.345 ± 0.24 kg/m3
same,mass density,"298.15 K, x1 = 0.85",837.74 ± 0.24 kg/m3
same,mass density,"298.15 K, x1 = 0.8998",831.478 ± 0.24 kg/m3
same,mass density,"298.15 K, x1 = 0.9498",825.31 ± 0.24 kg/m3
same,mass density,"298.15 K, x1 = 1",819.73 ± 0.23 kg/m3
same,viscosity,"303.15 K, x1 = 0.0505",1.12 ± 0.039 mPa·s
same,viscosity,"303.15 K, x1 = 0.1",1.145 ± 0.04 mPa·s
same,viscosity,"303.15 K, x1 = 0.1501",1.188 ± 0.041 mPa·s
same,viscosity,"303.15 K, x1 = 0.2",1.229 ± 0.043 mPa·s
same,viscosity,"303.15 K, x1 = 0.25",1.291 ± 0.045 mPa·s
same,viscosity,"303.15 K, x1 = 0.2997",1.365 ± 0.047 mPa·s
same,viscosity,"303.15 K, x1 = 0.3502",1.455 ± 0.051 mPa·s
same,viscosity,"303.15 K, x1 = 0.4001",1.547 ± 0.054 mPa·s
same,viscosity,"303.15 K, x1 = 0.4498",1.653 ± 0.057 mPa·s
same,viscosity,"303.15 K, x1 = 0.4998",1.794 ± 0.062 mPa·s
same,viscosity,"303.15 K, x1 = 0.55",1.937 ± 0.067 mPa·s
same,viscosity,"303.15 K, x1 = 0.6004",2.104 ± 0.073 mPa·s
same,viscosity,"303.15 K, x1 = 0.6501",2.296 ± 0.08 mPa·s
same,viscosity,"303.15 K, x1 = 0.7002",2.521 ± 0.087 mPa·s
same,viscosity,"303.15 K, x1 = 0.7493",2.766 ± 0.096 mPa·s
same,viscosity,"303.15 K, x1 = 0.7999",3.073 ± 0.11 mPa·s
same,viscosity,"303.15 K, x1 = 0.85",3.419 ± 0.12 mPa·s
same,viscosity,"303.15 K, x1 = 0.8998",3.847 ± 0.13 mPa·s
same,viscosity,"303.15 K, x1 = 0.9498",4.346 ± 0.15 mPa·s
same,viscosity,"303.15 K, x1 = 1",4.989 ± 0.17 mPa·s
same,speed of sound,"303.15 K, x1 = 0.0505",1317.9 ± 1.2 m/s
same,speed of sound,"303.15 K, x1 = 0.1",1312.3 ± 1.2 m/s
same,speed of sound,"303.15 K, x1 = 0.1501",1308.1 ± 1.2 m/s
same,speed of sound,"303.15 K, x1 = 0.2",1304.6 ± 1.2 m/s
same,speed of sound,"303.15 K, x1 = 0.25",1301.8 ± 1.2 m/s
same,speed of sound,"303.15 K, x1 = 0.2997",1299.7 ± 1.2 m/s
same,speed of sound,"303.15 K, x1 = 0.3502",1298.4 ± 1.2 m/s
same,speed of sound,"303.15 K, x1 = 0.4001",1297.2 ± 1.2 m/s
same,speed of sound,"303.15 K, x1 = 0.4498",1296.6 ± 1.2 m/s
same,speed of sound,"303.15 K, x1 = 0.4998",1296.6 ± 1.2 m/s

# Source: the NIST ThermoML archive (doi:10.1021/je400512u)
